In US20260256747A1, “ARYL-TRIAZOLYL AND RELATED GPR84 ANTAGONISTS AND USES THEREOF” (Liminal BioSciences Limited, priority 2022, published 2026):

Target: T1, human GPR84 receptor (Homo sapiens, UniProt Q9NQS5)
T1 construct: host or cells: HEK293 cells, transient transfection
Assay: Gαi biosensor BRET assay in HEK293 cells transfected with GPR84, stimulated with the GPR84 agonist ZQ-16
Assay type: cell-based
Conditions: 200 nmol/L ZQ-16; for inhibition at 2 µM / inhibition at 10 µM: HEK293, single concentration; for inhibition at 2 µM: concentration class A = 2 μM; for inhibition at 10 µM: concentration class F = 10 μM
Source text: Background—The following assays can be used for determination of GPR84 activation in living HEK293 cells. The Gαi BRET biosensor (Gagnon et al., 2018; Gales et al., 2006. Nat Struct Mol Biol. 13, 778-86; Saulieres et al., 2012. Nat Chem Biol. 8, 622-30) allows to directly monitor GPR84-mediated activation of Gαi. The Gαi biosensor consists of a Rluc8-tagged Gαi2 subunit, a GFP10-tagged Gγ2 subunit, and an untagged GB1. Agonist stimulation and GPR84 activation triggers a physical separation between the RLuc8-Gαi donor and the GFP10-Gγ2 acceptor, resulting in a decrease in BRET signal whose amplitude is correlated to ligand efficacy (Gales et al., 2006). Moreover, signaling functions of GPCRs are tightly regulated by endocytosis, the targeting of receptors to endosomes and their sorting to lysosomes or recycling to the plasma membrane. The early endosomes (EEs) trafficking assay (Namkung et al., 2016. Nat Commun. 7, 12178) uses Rluc8-tagged GPR84 and Renilla GFP (rGFP) attached to the FYVE domain from human endofin/zinc finger FYVE domain-containing protein 16, which binds phosphatidylinositol 3-phosphate in EEs. Agonist stimulation of GPR84-Rluc8 leads to trafficking of the receptor to EEs, and ensuing increase of the donor concentration relative to the rGFP-FYVE acceptor anchored in the same cellular compartment, and thus results in an increase in BRET signal.
Plasmids—The cDNA clones for human GPR84 receptor, human Gαi2, Gβ1, and Gγ2 were obtained from the cDNA Resource Center (www.cdna.org). GFP10 (F64L, S147P, S202F and H231L variant of Aequorea victoria Green Fluorescent Protein) gBlocks gene fragments (Integrated DNA Technologies, IA) and linker were inserted in frame at the N-terminus of human Gγ2. Rluc8 (A^55T, Cl24A, S130A, K136R, A^143M, M185V, M253L, and S287L variant of the Renilla reniformis luciferase) gBlocks gene fragment was inserted with linkers in frame in between residues 91 and 92 of Gαi2 or at the C-terminus of GPR84. The FYVE domain from human endofin (residues Q739 to K806) attached in frame at the C terminus of a humanized Renilla GFP (rGFP), were synthesized as gBlocks gene fragments.
Bioluminescence Resonance Energy Transfer (BRET) Measurement-HEK293 cells were transfected with GPR84-Rluc8 and rGFP-FYVE for the EEs trafficking biosensor or with GPR84, Gαi2-Rluc8, GFP10-Gγ2, and Gβ1 for the Gαi biosensor. The following day, transiently transfected cells were seeded in 96-well white clear bottom microplates coated with poly-D-lysine and left in culture for 24 hours. Cells were washed once with Tyrode's buffer (140 mmol/L NaCl, 1 mmol/L CaCl2, 2.7 mmol/L KCl, 0.49 mmol/L MgCl2, 0.37 mmol/L NaH2PO4, 5.6 mmol/L glucose, 12 mmol/L NaHCO3, and 25 mmol/L HEPES, pH 7.5) before performing assays in Tyrode's buffer. Test compounds were incubated with cells for 5 (Gai) or 15 (EEs) minutes at 37° C. before addition of 200 nmol/L of the GPR84 agonist ZQ-16 (2-(Hexylthio)-6-hydroxy-4 (3H)-pyrimidinone) for 5 minutes at room temperature (Gai) or 30 minutes at 37° C. (EEs). The Rluc8 substrate coelenterazine 400A (Prolume, Lakeside, AZ) was added at a final concentration of 5 μmol/L and BRET readings were collected using an Infinite M1000 microplate reader (Tecan, Morrisville, NC). BRET2 readings between Rluc8 and GFP10 or rGFP were collected by sequential integration of the signals detected in the 370 to 450 nm (Rluc8) and 510 to 540 nm (GFP10, rGFP) windows. The BRET signal was calculated as the ratio of light emitted by acceptor (GFP10, rGFP) over the light emitted by donor (Rluc8). The values were corrected to net BRET by subtracting the background BRET signal obtained in cells transfected with Rluc8 constructs alone. Ligand-promoted net BRET values were calculated by subtracting vehicle-induced net BRET from ligand-induced net BRET.

T1 sequence (Q9NQS5 whole entry): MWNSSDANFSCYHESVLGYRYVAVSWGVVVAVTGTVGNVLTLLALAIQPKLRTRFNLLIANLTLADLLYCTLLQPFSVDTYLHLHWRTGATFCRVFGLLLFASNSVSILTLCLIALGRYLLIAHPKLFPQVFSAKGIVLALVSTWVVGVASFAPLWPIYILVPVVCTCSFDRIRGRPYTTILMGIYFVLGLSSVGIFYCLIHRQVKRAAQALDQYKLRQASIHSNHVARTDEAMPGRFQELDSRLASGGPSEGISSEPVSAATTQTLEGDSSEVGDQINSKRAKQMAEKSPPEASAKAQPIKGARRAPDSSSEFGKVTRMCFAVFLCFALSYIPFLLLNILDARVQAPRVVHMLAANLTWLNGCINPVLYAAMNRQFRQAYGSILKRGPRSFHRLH

Structure (SMILES) | IC50 [µM] | inhibition at 2 µM [%] | inhibition at 10 µM [%]
C(#CC1CC1)c1cnc(-c2cnn(CC3OCC4(CC4)CO3)c2)c(OC2CC2)c1 [Compound I-218] | 0.3 to 1 | > 75 | –
Cc1cc(C#CC2CC2)ccc1-c1nnc(-c2cn(CC3OCC4(CC4)CO3)nn2)o1 [Compound I-220] | 0.3 to 1 | – | > 75
CCCOc1cc(C#CC2CC2)cnc1-c1cn(CC(=O)N(C)C)nn1 [Compound I-221] | – | – | 50 to 75
Cn1nnnc1-c1cnc(-c2cn(CC3OCC4(CC4)CO3)nn2)c(OC2CC2)c1 [Compound I-222] | – | – | ≤ 25
Cn1nnc(-c2cnc(-c3cn(CC4OCC5(CC5)CO4)nn3)c(OC3CC3)c2)n1 [Compound I-223] | ≤ 0.3 | > 75 | –
c1nc(-c2cn(CC3OCC4(CC4)CO3)nn2)c(OC2CC2)cc1-c1cnn[nH]1 [Compound I-224] | ≤ 0.3 | > 75 | –
Cn1nncc1-c1cnc(-c2cn(CC3OCC4(CC4)CO3)nn2)c(OC2CC2)c1 [Compound I-225] | – | – | 50 to 75
Cn1ncc(-c2cnc(-c3cn(CC4OCC5(CC5)CO4)nn3)c(OC3CC3)c2)n1 [Compound I-226] | ≤ 0.3 | > 75 | –
Cn1cc(-c2cnc(-c3cn(CC4OCC5(CC5)CO4)nn3)c(OC3CC3)c2)nn1 [Compound I-227] | ≤ 0.3 | > 75 | –
c1ncc(-c2cnc(-c3cn(CC4OCC5(CC5)CO4)nn3)c(OC3CC3)c2)[nH]1 [Compound I-228] | ≤ 0.3 | > 75 | –
c1c[nH]c(-c2cnc(-c3cn(CC4OCC5(CC5)CO4)nn3)c(OC3CC3)c2)n1 [Compound I-229] | – | – | ≤ 25
Cn1cncc1-c1cnc(-c2cn(CC3OCC4(CC4)CO3)nn2)c(OC2CC2)c1 [Compound I-230] | – | – | 50 to 75
CN(C)C(=O)CN(C)c1cnc(-c2cn(CC3OCC4(CC4)CO3)nn2)c(OC2CC2)c1 [Compound I-231] | – | – | ≤ 25
CN(C)C(=O)Cn1cc(-c2ncc(-c3nnn[nH]3)cc2OC2CC2)nn1 [Compound I-232] | – | – | 50 to 75
O=C(Cn1cc(-c2ncc(-c3nnn[nH]3)cc2OC2CC2)nn1)N1CCCC1 [Compound I-233] | – | – | 25 to 50
C(#CC1CC1)Cn1cc(-c2ncc(-c3nnn[nH]3)cc2OC2CC2)nn1 [Compound I-234] | – | – | > 75
c1cc(-c2cnc(-c3cn(CC4OCC5(CC5)CO4)nn3)c(OC3CC3)c2)n[nH]1 [Compound I-235] | ≤ 0.3 | > 75 | –
c1n[nH]cc1-c1cnc(-c2cn(CC3OCC4(CC4)CO3)nn2)c(OC2CC2)c1 [Compound I-236] | 0.3 to 1 | – | > 75
Cn1nccc1-c1cnc(-c2cn(CC3OCC4(CC4)CO3)nn2)c(OC2CC2)c1 [Compound I-237] | – | – | 50 to 75
Cn1ccc(-c2cnc(-c3cn(CC4OCC5(CC5)CO4)nn3)c(OC3CC3)c2)n1 [Compound I-238] | ≤ 0.3 | > 75 | –
Cn1cc(-c2cnc(-c3cn(CC4OCC5(CC5)CO4)nn3)c(OC3CC3)c2)cn1 [Compound I-239] | ≤ 0.3 | – | > 75
CN(C)C(=O)Cn1cc(-c2ncc(C#N)cc2OC2CC2)nn1 [Compound I-240] | – | – | ≤ 25
N#Cc1cnc(-c2cn(CC(=O)N3CCCC3)nn2)c(OC2CC2)c1 [Compound I-241] | – | – | 25 to 50
O=C(Cn1cnc(-c2ncc(C#CC3CC3)cc2OC2CC2)c1)N1CCCC1 [Compound I-242] | – | – | 50 to 75
O=C(Cn1cncc1-c1ncc(C#CC2CC2)cc1OC1CC1)N1CCCC1 [Compound I-243] | – | – | ≤ 25

Structure (SMILES) | IC50 [µM] | inhibition at 2 µM [%] | inhibition at 10 µM [%]
O=C(Cn1cc(-c2ncc(C#CC3CC3)cc2OC2CC2)nn1)N1CC[C@H](O)C1 [Compound I-244] | 1 to 3 | – | > 75
O=C(Cn1cc(-c2ncc(C#CC3CC3)cc2OC2CC2)nn1)N1CC[C@@H](O)C1 [Compound I-245] | 1 to 3 | – | > 75
O=C(Cn1cc(-c2ncc(C#CC3CC3)cc2OC2CC2)nn1)N1C[C@@H](O)[C@H](O)C1 [Compound I-246] | – | – | 50 to 75
O=C(Cn1cc(-c2ncc(C#CC3CC3)cc2OC2CC2)nn1)N1C[C@H](O)[C@@H](O)C1 [Compound I-247] | – | – | > 75
O=C(Cn1cc(-c2ncc(C#CC3CC3)cc2OC2CC2)nn1)N1C[C@@H](O)[C@@H](O)C1 [Compound I-248] | – | – | > 75
O=C(Cn1cc(-c2nc(O)c(C#CC3CC3)cc2OC2CC2)nn1)N1CCCC1 [Compound I-249] | – | ≤ 25 | –
O=C(Cn1cc(-c2ncc(C#CC3(O)CC3)cc2OC2CC2)nn1)N1CCCC1 [Compound I-250] | – | – | > 75
CN(C)C(=O)Cn1cc(-c2nc(O)c(C#CC3CC3)cc2OC2CC2)nn1 [Compound I-251] | – | ≤ 25 | –
CN(C)C(=O)Cn1cc(-c2ncc(C#CC3(O)CC3)cc2OC2CC2)nn1 [Compound I-252] | – | – | > 75
O=C(Cn1cc(-c2c(OC3CC3)cc(C#CC3CC3)c[n+]2[O-])nn1)N1CCCC1 [Compound I-253] | 1 to 3 | – | > 75
C(#CC1CC1)c1ccc(-c2nnc(-c3cn(CC4OCC5(CC5)CO4)nn3)o2)cc1 [Compound I-254] | – | – | 25 to 50
Cc1ccc(C#CC2CC2)cc1-c1nnc(-c2cn(CC3OCC4(CC4)CO3)nn2)o1 [Compound I-255] | – | – | 50 to 75
Cc1cc(C#CC2CC2)cnc1-c1nnc(-c2cn(CC3OCC4(CC4)CO3)nn2)o1 [Compound I-256] | – | – | ≤ 25
Fc1cc(C#CC2CC2)ccc1-c1nnc(-c2cn(CC3OCC4(CC4)CO3)nn2)o1 [Compound I-257] | – | – | > 75
Fc1ccc(C#CC2CC2)cc1-c1nnc(-c2cn(CC3OCC4(CC4)CO3)nn2)o1 [Compound I-258] | – | – | 25 to 50
Cc1cc(C#CC2CC2)ccc1-c1nnc(-c2cn(CC(=O)N(C)C)nn2)o1 [Compound I-259] | – | – | ≤ 25
Cc1ccc(C#CC2CC2)cc1-c1nnc(-c2cn(CC(=O)N(C)C)nn2)o1 [Compound I-260] | – | – | ≤ 25
CN(C)C(=O)Cn1cc(-c2nnc(-c3ccc(C#CC4CC4)cc3F)o2)nn1 [Compound I-261] | – | – | ≤ 25
CN(C)C(=O)Cn1cc(-c2nnc(-c3cc(C#CC4CC4)ccc3F)o2)nn1 [Compound I-262] | – | – | ≤ 25
Cc1ccc(C#CC2CC2)cc1C(F)(F)c1cn(CC(=O)N(C)C)nn1 [Compound I-263] | – | 25 to 50 | –
Cc1ccc(C#CC2CC2)cc1C(F)(F)c1cn(CC2OCC3(CC3)CO2)nn1 [Compound I-264] | – | > 75 | –
N=C(N)c1cnc(-c2cn(CC3OCC4(CC4)CO3)nn2)c(OC2CC2)c1 [Compound I-265] | – | – | 25 to 50
CN1CCN(C(=O)Cn2cc(-c3ncc(C#CC4CC4)cc3OC3CC3)nn2)CC1 [Compound I-266] | – | – | 25 to 50
O=C(Cn1cc(-c2ncc(C#CC3CC3)cc2OC2CC2)nn1)N1CCCCC1 [Compound I-267] | – | – | > 75
O=C(Cn1cc(-c2ncc(C#CC3CC3)cc2OC2CC2)nn1)N1CCOCC1 [Compound I-268] | – | – | 25 to 50
